{"source": "ChEMBL document CHEMBL1201862", "about": "“PubChem BioAssay data set” (2004)", "key": {"HEK293 [1]": {"test_system": "HEK293", "assay": "SAR Analysis of small molecule inhibitors of T-cell specific antigen receptor-induced NF-kB activation in a HEK-293T cell line using a luminescence assay - Set 2. [Related pubchem assays (depositor defined):AID435003, AID435012, AID489026]", "format": "functional, cell-based", "details": "Homo sapiens"}, "[2]": {"assay": "DRD fibroblast viability loss – cell-based, non-viral oncogenic, luminescence, dose response (AID 1934)", "format": "functional", "details": "Homo sapiens"}, "Jurkat [3]": {"test_system": "Jurkat", "assay": "blockers of NF-kB activation in T cells – Jurkat, luciferase reporter, luminescence, B- and T-cell, dose response (AID 489004);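 also: NF-kB luciferase reporter Jurkat cells stimulated with PMA plus ionomycin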", "format": "functional, cell-based", "details": "Homo sapiens"}, "BJ [4]": {"test_system": "BJ", "assay": "BJ-TERT-LT-ST fibroblast viability loss – cell-based, RAS-independent, luminescence, dose response (AID 1935);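 also: BJ fibroblasts immortalized with TERT plus LT and ST oncogenes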", "format": "functional", "details": "Homo sapiens"}, "Jurkat [5]": {"test_system": "Jurkat", "assay": "SAR Analysis of small molecule inhibitors of T-cell specific antigen receptor-induced NF-kB activation in a Jurkat cell line using a luminescence assay - Set 2. [Related pubchem assays (depositor defined):AID435003, AID435012, AID465]", "format": "functional, cell-based", "details": "Homo sapiens"}, "HEK293 [6]": {"test_system": "HEK293", "assay": "HEK293T cell viability loss, resazurin readout – resazurin fluorescence, cytotoxicity control for NF-kB activator project, SAR follow-up (AID 493251)", "format": "functional, cell-based", "details": "Homo sapiens"}, "BJ [7]": {"test_system": "BJ", "assay": "cells", "format": "functional, cell-based", "details": "Homo sapiens"}, "[8]": {"assay": "HEK-293T viability loss, compound-treated – cell-based, uHTS hits, cytotoxicity control for B/T-cell NF-kB inhibitor project, dose response (AID 489019)", "format": "functional"}, "BJ [9]": {"test_system": "BJ", "assay": "BJ-TERT fibroblast viability loss – cell-based, RAS-independent, luminescence, dose response (AID 1933)", "format": "functional", "details": "Homo sapiens"}, "[10]": {"assay": "reduced cellular PGC1a acetyl-lysine signal – cell-based, cherry-picked samples, dose response (AID 720514);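 also: potency may reflect raised or lowered acetylation signal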", "format": "functional"}, "[11]": {"assay": "rise of 2N DNA cells, HeLa – IC50, dose response (AID 1117349)", "format": "functional, cell-based"}, "A-375 [12]": {"test_system": "A-375", "assay": "MITF: Counter assay: A375 proliferation Measured in Cell-Based System Using Plate Reader - 2084-03_Inhibitor_Dose_DryPowder_Activity. [Related pubchem assays (depositor defined):AID488944]", "format": "functional", "details": "Homo sapiens"}, "A-375 [13]": {"test_system": "A-375", "assay": "proliferation inhibition in MITF-low A375 cells – cell-based, cherry-pick samples, set 2, counter-screen for MITF modulator project, dose response (AID 540335)", "format": "functional", "details": "Homo sapiens"}, "[14]": {"assay": "rise of 4N DNA cells, HeLa – IC50, dose response (AID 1117351)", "format": "functional, cell-based"}, "[15]": {"molecular_target": "Glucose-6-phosphate 1-dehydrogenase (Homo sapiens, UniProt P11413)", "sequence (P11413 whole entry)": "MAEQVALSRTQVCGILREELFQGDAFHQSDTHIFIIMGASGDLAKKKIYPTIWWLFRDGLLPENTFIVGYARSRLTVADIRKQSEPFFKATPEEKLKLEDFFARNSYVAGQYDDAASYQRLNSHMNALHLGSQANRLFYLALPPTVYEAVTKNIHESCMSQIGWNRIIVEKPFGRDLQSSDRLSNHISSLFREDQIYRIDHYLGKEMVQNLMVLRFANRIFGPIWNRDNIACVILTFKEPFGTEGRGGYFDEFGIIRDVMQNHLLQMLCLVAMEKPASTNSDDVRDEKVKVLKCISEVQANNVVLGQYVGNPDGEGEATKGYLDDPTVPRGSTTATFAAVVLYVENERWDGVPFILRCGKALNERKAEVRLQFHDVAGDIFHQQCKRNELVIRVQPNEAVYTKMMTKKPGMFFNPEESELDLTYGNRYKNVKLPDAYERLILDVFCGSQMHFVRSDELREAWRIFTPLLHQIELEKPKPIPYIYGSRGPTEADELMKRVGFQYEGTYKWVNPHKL", "assay": "inhibition of Homo sapiens G6PD, dose series – biochemical, fluorescence, selectivity assay for P. falciparum G6PD inhibitor project, dose response (AID 504792)", "format": "functional"}, "[16]": {"assay": "NIH-3T3 fibroblast cytotoxicity, dose response, cytotoxicity control, cell-based, fluorescence, Alamar Blue, secondary assay (AID 2327);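 also: NIH-3T3 mouse fibroblasts cultured with fluconazole at 8 µg/mL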", "format": "functional"}, "[17]": {"molecular_target": "Serine/threonine-protein phosphatase (Candida dubliniensis (strain CD36 / CBS 7987 / NCPF 3949 / NRRLY-17841) (Yeast), UniProt B9W6M3)", "sequence (B9W6M3 whole entry)": "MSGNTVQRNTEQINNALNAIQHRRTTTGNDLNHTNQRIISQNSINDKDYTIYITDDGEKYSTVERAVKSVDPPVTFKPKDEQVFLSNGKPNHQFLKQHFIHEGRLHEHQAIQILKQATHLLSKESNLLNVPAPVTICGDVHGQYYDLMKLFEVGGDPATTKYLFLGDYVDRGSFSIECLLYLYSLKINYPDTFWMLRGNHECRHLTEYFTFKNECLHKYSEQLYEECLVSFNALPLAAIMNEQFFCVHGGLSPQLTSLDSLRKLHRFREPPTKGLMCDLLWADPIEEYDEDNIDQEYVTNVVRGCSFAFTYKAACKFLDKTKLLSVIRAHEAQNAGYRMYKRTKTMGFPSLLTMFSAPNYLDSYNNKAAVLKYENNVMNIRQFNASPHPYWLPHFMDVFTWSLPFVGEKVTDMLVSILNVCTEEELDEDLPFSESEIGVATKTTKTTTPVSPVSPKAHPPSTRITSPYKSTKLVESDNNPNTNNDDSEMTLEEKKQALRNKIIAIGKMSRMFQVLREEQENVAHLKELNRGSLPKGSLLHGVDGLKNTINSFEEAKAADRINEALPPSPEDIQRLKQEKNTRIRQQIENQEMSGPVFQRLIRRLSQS", "assay": "blockers of CaCl2-induced CDRE-lacZ signaling – S. cerevisiae, luminescence, secondary, dose response (AID 2388);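 also: yeast reporter cells carrying a calcineurin-responsive lacZ construct stimulated with calcium chloride; luminescent beta-galactosidase reporter signal in whole cells rather than isolated phosphatase activity; potency for inhibition where a drop in reporter signal means calcineurin blockade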", "format": "functional, cell-based"}, "[18]": {"assay": "fluconazole-exposed Candida albicans growth modulators – fluorescence, retest, confirmation (AID 2467)", "format": "functional, cell-based"}, "[19]": {"molecular_target": "ATP-dependent molecular chaperone HSP82 (Candida albicans (strain WO-1) (Yeast), UniProt C4YTQ8)", "sequence (C4YTQ8 whole entry)": "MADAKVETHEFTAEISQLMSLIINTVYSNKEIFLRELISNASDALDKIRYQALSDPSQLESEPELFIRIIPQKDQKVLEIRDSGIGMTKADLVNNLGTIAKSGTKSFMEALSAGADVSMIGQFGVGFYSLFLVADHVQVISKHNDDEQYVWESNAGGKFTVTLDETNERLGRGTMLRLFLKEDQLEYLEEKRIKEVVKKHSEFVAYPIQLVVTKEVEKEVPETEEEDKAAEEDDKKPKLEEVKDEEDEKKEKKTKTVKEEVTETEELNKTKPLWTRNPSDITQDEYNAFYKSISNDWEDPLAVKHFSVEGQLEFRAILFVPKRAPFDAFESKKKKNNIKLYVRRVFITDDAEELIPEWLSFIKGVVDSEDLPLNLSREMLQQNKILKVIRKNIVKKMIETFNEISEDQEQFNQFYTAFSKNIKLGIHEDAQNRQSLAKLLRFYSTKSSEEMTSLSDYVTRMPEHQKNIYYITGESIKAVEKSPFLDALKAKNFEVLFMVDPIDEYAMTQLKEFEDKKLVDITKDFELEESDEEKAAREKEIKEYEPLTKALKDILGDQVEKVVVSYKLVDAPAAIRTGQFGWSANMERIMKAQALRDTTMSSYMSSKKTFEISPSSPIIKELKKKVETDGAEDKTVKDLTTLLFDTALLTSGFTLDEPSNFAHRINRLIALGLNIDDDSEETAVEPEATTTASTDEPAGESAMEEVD", "assay": "steroid-induced GRE reporter decrease in yeast – S. cerevisiae, luminescence, Hsp90 inhibitor project, dose response (AID 2400);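 also: beta-galactosidase luminescence from glucocorticoid response element reporter as proxy for Hsp90 function; inhibitor potency where signal loss means Hsp90 inhibition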", "format": "functional, cell-based"}, "Candida albicans": {"test_system": "Candida albicans", "assay": "antifungal activity against resistant Candida strain – CaCi-8, fluconazole, Alamar Blue, dry powder, dose response (AID 488807)", "format": "functional, organism-based"}, "[20]": {"molecular_target": "T1, Corticotropin-releasing factor receptor 2/Corticotropin-releasing factor-binding protein (Homo sapiens, UniProt P24387+Q13324)", "T1 sequence (Q13324 whole entry)": "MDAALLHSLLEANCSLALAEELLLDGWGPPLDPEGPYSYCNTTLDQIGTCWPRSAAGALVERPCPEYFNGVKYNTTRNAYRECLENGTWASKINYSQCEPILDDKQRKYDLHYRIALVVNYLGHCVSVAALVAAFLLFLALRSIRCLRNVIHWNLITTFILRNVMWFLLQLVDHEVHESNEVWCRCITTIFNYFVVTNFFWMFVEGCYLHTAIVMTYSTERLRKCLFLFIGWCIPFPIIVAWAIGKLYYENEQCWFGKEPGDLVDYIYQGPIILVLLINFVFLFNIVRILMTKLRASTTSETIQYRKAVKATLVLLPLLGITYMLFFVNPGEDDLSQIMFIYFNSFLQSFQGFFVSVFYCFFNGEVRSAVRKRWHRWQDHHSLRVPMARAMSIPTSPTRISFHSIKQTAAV", "T1 sequence (P24387 whole entry)": "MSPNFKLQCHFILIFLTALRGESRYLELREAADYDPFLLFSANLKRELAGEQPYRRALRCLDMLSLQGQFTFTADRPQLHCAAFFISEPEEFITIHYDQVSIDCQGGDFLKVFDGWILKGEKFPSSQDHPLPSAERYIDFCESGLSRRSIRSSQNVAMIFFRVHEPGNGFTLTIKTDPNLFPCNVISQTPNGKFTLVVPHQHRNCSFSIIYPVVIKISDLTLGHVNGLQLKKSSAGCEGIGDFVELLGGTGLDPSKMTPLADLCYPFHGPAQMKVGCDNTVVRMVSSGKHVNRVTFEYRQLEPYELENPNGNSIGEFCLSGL", "assay": "Dose Response confirmation of uHTS hits for small molecule antagonists of the CRF-binding protein and CRF-R2 receptor complex.", "format": "functional", "details": "read-out: IC50_Mean"}, "[21]": {"assay": "restored growth of temperature-sensitive Burl-1 yeast – whole organism, S. cerevisiae, Burl-1 ts mutant, luminescence, counter-screen for SUMOylation pathway inhibitor project, dose response (AID 463199)", "format": "functional"}, "[22]": {"molecular_target": "T1, Corticotropin-releasing factor receptor 2/Corticotropin-releasing factor-binding protein", "assay": "activators of CRF receptor 2 with binding protein – uHTS hits, confirmation (AID 602473)", "format": "functional", "details": "read-out: EC50_Mean"}}, "note": "Active and inactive are the calls of the source."}
{"smiles": "COc1cc2nc(NC(=O)c3ccccc3)sc(=O)c2cc1OC", "values": [{"measurement": "IC50", "setting": "HEK293 [1]", "value": "65.6 µM (inactive)"}, {"measurement": "EC50", "setting": "[2]", "value": "79 µM (active)"}, {"measurement": "IC50", "setting": "Jurkat [3]", "value": "0.76 µM (active)"}, {"measurement": "EC50", "setting": "BJ [4]", "value": "> 150 µM (inconclusive)"}, {"measurement": "IC50", "setting": "Jurkat [5]", "value": "0.56 µM (active)"}, {"measurement": "IC50", "setting": "HEK293 [6]", "value": "> 80 µM (inactive)"}, {"measurement": "EC50", "setting": "BJ [7]", "value": "> 150 µM (not active)"}, {"measurement": "IC50", "setting": "[8]", "value": "> 80 µM (inactive)"}, {"measurement": "EC50", "setting": "BJ [9]", "value": "20.1 µM (active)"}]}
{"smiles": "CCCCC1C(=O)N(c2ccccc2)N(c2ccc(O)cc2)C1=O", "note": "(stereo not drawn) [OXYPHENBUTAZONE ANHYDROUS]", "values": [{"measurement": "AC50", "setting": "[10]", "value": "9.85 µM (active)"}, {"measurement": "IC50", "setting": "[11]", "value": "> 10 µM (inactive)"}, {"measurement": "AC50", "setting": "A-375 [12]", "value": "> 35 µM (active)"}, {"measurement": "AC50", "setting": "A-375 [13]", "value": "> 35 µM (active)"}, {"measurement": "IC50", "setting": "[14]", "value": "> 10 µM (inactive)"}, {"measurement": "IC50", "setting": "[15]", "value": "> 80 µM (inactive)"}]}
{"smiles": "Oc1nc(S)nnc1Cc1ccc(Cl)c(Cl)c1", "values": [{"measurement": "EC50", "setting": "[16]", "value": "> 160 µM (inactive)"}, {"measurement": "EC50", "setting": "[17]", "value": "> 180 µM (inactive)"}, {"measurement": "EC50", "setting": "[18]", "value": "0.241 µM (active)"}, {"measurement": "EC50", "setting": "[19]", "value": "> 160 µM (inactive)"}]}
{"smiles": "COC(=O)Cn1nc(-c2ccccc2)c2cc(Cl)ccc21", "values": [{"measurement": "AC50", "setting": "Candida albicans", "value": "9.53 µM (active)"}]}
{"smiles": "CCCCn1c(N)c(N(Cc2ccccc2OC)C(=O)c2c(CC)noc2C)c(=O)[nH]c1=O", "values": [{"measurement": "IC50", "setting": "[20]", "value": "> 47.1 µM (inactive)"}, {"measurement": "AC50", "setting": "[21]", "value": "61.2 µM (active)"}, {"measurement": "EC50", "setting": "[22]", "value": "> 53 µM (inactive)"}]}
